This note sets out measurements from US8889688B2, “Piperazines as antimalarial agents” (Actelion Pharmaceuticals Ltd., priority 2011, dated 2014).

Like-named read-outs stand apart in the source and are kept apart here. A value given as a limit tells only on which side of the number the result lay.

Assay [1] concerns erythrocytic stages of P. falciparum NF54. Kind of assay: Plasmodium falciparum in vitro assay, [3H] hypoxanthine incorporation. It is filed as cell-based. Conditions: Plasmodium falciparum, Erythrocyte, 72 h, P. falciparum NF54 in human red blood cells, 48 h + 24 h incubation. On the procedure: In Vitro Antimalarial Activity: Plasmodium falciparum In Vitro Assay In vitro activity against erythrocytic stages of P. falciparum in human red blood cells is determined using a [^3H] hypoxanthine incorporation assay. […] Thereafter, the parasite cultures incubated in screening medium containing washed human red blood cells at 2.5% hematocrit (0.3% parasitemia) are added to the serially diluted compounds and incubated in a humidifying atmosphere at 37° C., 4% CO2, 3% O2, and 93% N2. After 48 h, [^3H] hypoxanthine (0.5 μCi) is added to each well of a plate. The plates are incubated for a further 24 h under the same conditions then harvested with a Betaplate cell harvester (Wallac) and washed with distilled water. The dried filters are inserted into a plastic foil with 10 mL of scintillation fluid, and counted in a Betaplate liquid scintillation counter. IC50 values are calculated from sigmoidal inhibition curves using Microsoft Excel.

The test system of assay [2] is P. berghei strain GFP-ANKA. Kind of assay: In vivo antimalarial efficacy study in infected NMRI mice. Conditions: Plasmodium berghei; female NMRI mice infected with P. berghei GFP-ANKA; single oral dose of 100 mg/kg 24 h after infection; parasitemia 48 h after drug treatment (day 3); read-out: Activity (inhibition of parasitemia) expressed as a percent relative to the control group. On the procedure:
In Vivo Antimalarial Efficacy Studies
In vivo antimalarial activity is assessed for groups of three female NMRI mice (20-22 g) intravenously infected on day 0 with P. berghei strain GFP-ANKA (0.2 mL heparinized saline suspension containing 2×10^7 parasitized erythrocytes). In control mice, parasitemia typically rises to approximately 40% by day 3 after infection. Compounds are formulated in Tween 80/ethanol (7%/3%) usually at concentrations of 10 mg/mL. Compounds are administered in a volume of 10 mL/kg orally as single doses (1×100 mg/kg, 24 h after infection). 48 h after drug treatment (day 3 post-infection), 1 μl tail blood is taken, resuspended in 1 mL PBS buffer and parasitemia determined with a FACScan (Becton Dickinson) by counting 100′000 red blood cells. Activity is calculated as the difference between the mean value of the control group and treated groups expressed as a percent relative to the control group.

Where [3] appears, read: screening medium with Albumax (5 g/L), read-out: IC50 on NF54 (with Albumax).
Where [4] appears, read: screening medium with human serum (50% final concentration), read-out: IC50 on NF54 (with 50% Serum).

Regarding `CC(=O)N1CCN(c2ccc(CN(C(=O)C=Cc3ccc(C(F)(F)F)cc3)[C@@H](Cc3ccccc3)C(=O)N3CCN(Cc4ccccc4)CC3)cc2)CC1` [Example 1, (S)-N-[4-(4-Acetyl-piperazin-1-yl)-benzyl]-N-[1-benzyl-2-(4-benzyl-piperazin-1-yl)-2-oxo-ethyl]-3-(4-trifluoromethyl-phenyl)-acrylamide, reference compound], the IC50 – broadly, the concentration at which inhibition is half-maximal – in assay [1] (setting [3]) came out at 5.1 nM; in assay [1] (setting [4]) it was 27.6 nM. Moreover, the inhibition in vivo at 100 mg/kg in assay [2] was < 40%.

On to `CCc1ccc(C=CC(=O)N(Cc2ccc(N3CCN(C(C)=O)CC3)cc2)[C@@H](Cc2ccccc2)C(=O)N2CCN(Cc3ccccc3)CC2)cc1` [Example 2, (S)-N-[4-(4-Acetyl-piperazin-1-yl)-benzyl]-N-[1-benzyl-2-(4-benzyl-piperazin-1-yl)-2-oxo-ethyl]-3-(4-ethyl-phenyl)-acrylamide], for which the IC50 in assay [1] (setting [3]) is 2 nM; in assay [1] (setting [4]), 10 nM. In addition, the inhibition in vivo at 100 mg/kg in assay [2] is 94.1%.

Regarding `CC(=O)N1CCN(c2ccc(CN(C(=O)C=Cc3ccc(C(C)(C)C)cc3)[C@@H](Cc3ccccc3)C(=O)N3CCN(Cc4ccccc4)CC3)cc2)CC1` [Example 3, (S)-N-[4-(4-Acetyl-piperazin-1-yl)-benzyl]-N-[1-benzyl-2-(4-benzyl-piperazin-1-yl)-2-oxo-ethyl]-3-(4-tert-butyl-phenyl)-acrylamide], the figures for the IC50 in assay [1] (setting [3]) and in assay [1] (setting [4]) were 1.9 nM and 8.5 nM, respectively. Also, the inhibition in vivo at 100 mg/kg in assay [2] was found to be 98.7%.

As to `CCOc1ccc(C=CC(=O)N(Cc2ccc(N3CCN(C(C)=O)CC3)cc2)[C@@H](Cc2ccccc2)C(=O)N2CCN(Cc3ccccc3)CC2)cc1` [Example 4, (S)-N-[4-(4-Acetyl-piperazin-1-yl)-benzyl]-N-[1-benzyl-2-(4-benzyl-piperazin-1-yl)-2-oxo-ethyl]-3-(4-ethoxy-phenyl)-acrylamide], the IC50 in assay [1] (setting [3]) amounted to 1.9 nM; in assay [1] (setting [4]) it was 10 nM. Also, in assay [2], the inhibition in vivo at 100 mg/kg turned out to be 97.4%.

With `COC(=O)c1ccc(C=CC(=O)N(Cc2ccc(N3CCN(C(C)=O)CC3)cc2)[C@@H](Cc2ccccc2)C(=O)N2CCN(Cc3ccccc3)CC2)cc1` [Example 5, (S)-4-(2-{[4-(4-Acetyl-piperazin-1-yl)-benzyl]-[1-benzyl-2-(4-benzyl-piperazin-1-yl)-2-oxo-ethyl]-carbamoyl}-vinyl)-benzoic acid methyl ester], the IC50 was determined as 3.9 nM in assay [1] (setting [3]) and 12 nM in assay [1] (setting [4]). The inhibition in vivo at 100 mg/kg in assay [2] was < 40%.

`CC(=O)N1CCN(c2ccc(CN(C(=O)C=Cc3ccc(S(C)(=O)=O)cc3)[C@@H](Cc3ccccc3)C(=O)N3CCN(Cc4ccccc4)CC3)cc2)CC1` [Example 6, (S)-N-[4-(4-Acetyl-piperazin-1-yl)-benzyl]-N-[1-benzyl-2-(4-benzyl-piperazin-1-yl)-2-oxo-ethyl]-3-(4-methanesulfonyl-phenyl)-acrylamide]: the concentration for half-maximal inhibition (IC50) amounted to 9.4 nM in assay [1] (setting [3]) and 32 nM in assay [1] (setting [4]). In addition, the inhibition in vivo at 100 mg/kg in assay [2] was found to be 80.4%.

Regarding `CC(=O)Nc1ccc(C=CC(=O)N(Cc2ccc(N3CCN(C(C)=O)CC3)cc2)[C@@H](Cc2ccccc2)C(=O)N2CCN(Cc3ccccc3)CC2)cc1` [Example 7, (S)-3-(4-Acetylamino-phenyl)-N-[4-(4-acetyl-piperazin-1-yl)benzyl]-N-[1-benzyl-2-(4-benzyl-piperazin-1-yl)-2-oxo-ethyl]-acrylamide], the IC50 in assay [1] (setting [3]) is 3.1 nM; in assay [1] (setting [4]), 40 nM. The inhibition in vivo at 100 mg/kg in assay [2] is 44.7%.

As to `CCCOc1ccc(C=CC(=O)N(Cc2ccc(N3CCN(C(C)=O)CC3)cc2)[C@@H](Cc2ccccc2)C(=O)N2CCN(Cc3ccccc3)CC2)cc1` [Example 8, (S)-N-[4-(4-Acetyl-piperazin-1-yl)-benzyl]-N-[1-benzyl-2-(4-benzyl-piperazin-1-yl)-2-oxo-ethyl]-3-(4-propoxy-phenyl)-acrylamide], the values for the IC50 in assay [1] (setting [3]) and in assay [1] (setting [4]) were 1.8 nM and 13.4 nM, respectively. Besides, the inhibition in vivo at 100 mg/kg in assay [2] worked out at 99.4%.

Regarding `CC(=O)N1CCN(c2ccc(CN(C(=O)C=Cc3ccc(OC(C)C)cc3)[C@@H](Cc3ccccc3)C(=O)N3CCN(Cc4ccccc4)CC3)cc2)CC1` [Example 9, (S)-N-[4-(4-Acetyl-piperazin-1-yl)-benzyl]-N-[1-benzyl-2-(4-benzyl-piperazin-1-yl)-2-oxo-ethyl]-3-(4-isopropoxy-phenyl)-acrylamide], the 50% inhibitory concentration (IC50) in assay [1] (setting [3]) came out at 2.4 nM; in assay [1] (setting [4]), 7.3 nM. In assay [2], the inhibition in vivo at 100 mg/kg was 99.1%.

Take `CC(=O)N1CCN(c2ccc(CN(C(=O)C=Cc3ccc(C(C)C)cc3)[C@@H](Cc3ccccc3)C(=O)N3CCN(Cc4ccccc4)CC3)cc2)CC1` [Example 10, (S)-N-[4-(4-Acetyl-piperazin-1-yl)-benzyl]-N-[1-benzyl-2-(4-benzyl-piperazin-1-yl)-2-oxo-ethyl]-3-(4-isopropyl-phenyl)-acrylamide]: the IC50 is 3 nM in assay [1] (setting [3]) and 8.6 nM in assay [1] (setting [4]). Also, the inhibition in vivo at 100 mg/kg in assay [2] was 96%.

`CCOc1ccc(C=CC(=O)N(Cc2ccc(N3CCN(C(C)=O)CC3)cc2)[C@@H](Cc2ccccc2)C(=O)N2CCN(Cc3ccc(N(C)C)cc3)CC2)cc1` [Example 15, (S)-N-[4-(4-Acetyl-piperazin-1-yl)-benzyl]-N-{1-benzyl-2-[4-(4-dimethylamino-benzyl)-piperazin-1-yl]-2-oxo-ethyl}-3-(4-ethoxy-phenyl)-acrylamide]: the values for the IC50 in assay [1] (setting [3]) and in assay [1] (setting [4]) were 1.7 nM and 6.8 nM, respectively. Also, the inhibition in vivo at 100 mg/kg in assay [2] turned out to be 99%.

As to `CC(=O)N1CCN(c2ccc(CN(C(=O)C=Cc3ccc(S(C)(=O)=O)cc3)[C@@H](Cc3ccccc3)C(=O)N3CCN(Cc4ccc(N(C)C)cc4)CC3)cc2)CC1` [Example 16, (S)-N-[4-(4-Acetyl-piperazin-1-yl)-benzyl]-N-{1-benzyl-2-[4-(4-dimethylamino-benzyl)-piperazin-1-yl]-2-oxo-ethyl}-3-(4-methanesulfonyl-phenyl)-acrylamide], the IC50 in assay [1] (setting [3]) amounted to 5.5 nM; in assay [1] (setting [4]) it was 13.3 nM. The inhibition in vivo at 100 mg/kg in assay [2] came to 85.9%.

As to `CCCOc1ccc(C=CC(=O)N(Cc2ccc(N3CCN(C(C)=O)CC3)cc2)[C@@H](Cc2ccccc2)C(=O)N2CCN(Cc3ccc(N(C)C)cc3)CC2)cc1` [Example 18, (S)-N-[4-(4-Acetyl-piperazin-1-yl)-benzyl]-N-{1-benzyl-2-[4-(4-dimethylamino-benzyl)-piperazin-1-yl]-2-oxo-ethyl}-3-(4-propoxy-phenyl)-acrylamide], the figures for the IC50 in assay [1] (setting [3]) and in assay [1] (setting [4]) were 2.5 nM and 11.8 nM, respectively. The inhibition in vivo at 100 mg/kg in assay [2] is 99.1%.

Regarding `CC(=O)N1CCN(c2ccc(CN(C(=O)C=Cc3ccc(OC(C)C)cc3)[C@@H](Cc3ccccc3)C(=O)N3CCN(Cc4ccc(N(C)C)cc4)CC3)cc2)CC1` [Example 19, (S)-N-[4-(4-Acetyl-piperazin-1-yl)-benzyl]-N-{1-benzyl-2-[4-(4-dimethylamino-benzyl)-piperazin-1-yl]-2-oxo-ethyl}-3-(4-isopropoxy-phenyl)-acrylamide], the results for the IC50 in assay [1] (setting [3]) and in assay [1] (setting [4]) were 2.6 nM and 9.3 nM, respectively. In addition, the inhibition in vivo at 100 mg/kg in assay [2] amounted to 99.2%.

`CCc1ccc(C=CC(=O)N(Cc2ccc(N3CCN(C(C)=O)CC3)cc2)[C@@H](Cc2ccccc2)C(=O)N2CCN(Cc3ccc(N(C)C)cc3)CC2)cc1` [Example 20, (S)-N-[4-(4-Acetyl-piperazin-1-yl)-benzyl]-N-{1-benzyl-2-[4-(4-dimethylamino-benzyl)-piperazin-1-yl]-2-oxo-ethyl}-3-(4-ethyl-phenyl)-acrylamide]: the IC50 in assay [1] (setting [3]) came out at 1.2 nM; in assay [1] (setting [4]), 7.1 nM. Moreover, the inhibition in vivo at 100 mg/kg in assay [2] was determined as 98.5%.

As for `CC(=O)N1CCN(c2ccc(CN(C(=O)C=Cc3ccc(OC(F)F)cc3)[C@@H](Cc3ccccc3)C(=O)N3CCN(Cc4ccc(N(C)C)cc4)CC3)cc2)CC1` [Example 21, (S)-N-[4-(4-Acetyl-piperazin-1-yl)-benzyl]-N-{1-benzyl-2-[4-(4-dimethylamino-benzyl)-piperazin-1-yl]-2-oxo-ethyl}-3-(4-difluoromethoxy-phenyl)-acrylamide], the IC50 was 1.9 nM in assay [1] (setting [3]) and 7 nM in assay [1] (setting [4]). Besides, in assay [2], the inhibition in vivo at 100 mg/kg was 98.8%.

Turning to `CC(=O)N1CCN(c2ccc(CN(C(=O)C=Cc3ccc(C(C)(C)C)cc3)[C@@H](Cc3ccccc3)C(=O)N3CCN(Cc4ccc(N(C)C)cc4)CC3)cc2)CC1` [Example 22, (S)-N-[4-(4-Acetyl-piperazin-1-yl)-benzyl]-N-{1-benzyl-2-[4-(4-dimethylamino-benzyl)-piperazin-1-yl]-2-oxo-ethyl}-3-(4-tert-butyl-phenyl)-acrylamide], the IC50 in assay [1] (setting [3]) was 1.3 nM; in assay [1] (setting [4]) it was 10.9 nM. Moreover, the inhibition in vivo at 100 mg/kg in assay [2] is 99.3%.
